Measured values as given in PubChem BioAssay AID789 (SRMLSC, 2007).
Activity calls are given as the source filed them. How the calls were made is not given here.

Key:
[1] = test system: S. cerevisiae apl2Δ mutant growth inhibition; assay: growth inhibition of apl2Δ yeast, dose response, selectivity assay for post-Golgi transport modulator project, S. cerevisiae, secondary screen, background strain comparison (AID 789)
[2] = as above; conditions: S. cerevisiae background (wild-type parent) strain growth inhibition

Compound | IC50 [1] | IC50 [2] [µM]
CN1C(=O)/C(=C/c2cccn2-c2ccc3ccccc3c2)C(=O)NC1=S | 11.3 µM (inactive) | 6.58
O=C1CC(N2CCN(c3ccc(Cl)c(Cl)c3)CC2)C(=O)N1 (centres undefined) | > 10 µM (inactive) | > 10
Cc1ccc(C2N(c3ccc(Cl)c(Cl)c3)C(=O)C3CCCN32)o1 (centres undefined) | > 10 µM (inactive) | > 10
O=C(NC(C(=O)c1ccccc1)N1CCCCC1)c1ccccc1 (centres undefined) | > 10 µM (inactive) | > 10
C/C(CCC12CC3CC(CC(C3)C1)C2)=N\NC(N)=S | 4.94 µM | 5.28
CCOC(=O)C1CCN(Cc2cnc(Oc3ccc(Cl)cc3C)s2)CC1 | > 10 µM (inactive) | > 10
CN1CCN(CCCNC(=O)Cn2nc(-c3ccccc3)ccc2=O)CC1 | > 10 µM (inactive) | > 10
COc1ccc(N2CCN(c3oc(-c4ccco4)nc3C#N)CC2)cc1 | > 10 µM (inactive) | > 10
CCOC(=O)N1CCN(c2ccc(S(=O)(=O)N(Cc3ccccc3)Cc3ccccc3)cn2)CC1 | > 10 µM (inactive) | > 10
O=C(Cn1nnc(-c2ccc(S(=O)(=O)N3CCCC3)cc2)n1)NCC1CCCO1 (centres undefined) | > 10 µM (inactive) | > 10
CCCOc1ccccc1N/C(=N/c1nc(C)cc(C)n1)NC(=O)COc1ccc(OC)cc1 | > 10 µM (inactive) | > 10
CC(=O)NC1C(c2nc3ccccc3s2)=C(c2ccccc2)C(=O)N1c1ccc(C)cc1 (centres undefined) | 2.89 µM (inactive) | 1.92
O=C(NCc1ccco1)C(c1cccs1)N(C(=O)Cc1cccs1)c1ccccc1 (centres undefined) | > 10 µM (inactive) | > 10
CCOC(=O)c1c(NC(=O)CN2CCCCC2)sc2c1CCC(C=O)=C2Cl | > 10 µM (inactive) | > 10
Clc1ccc2[nH]c3c(NCC4CCCO4)ncnc3c2c1 (centres undefined) | > 10 µM (inactive) | > 10
Cc1cccc(-c2c3c(=O)n(C)c(=O)n(C)c3cn2C2CCCCC2)c1 | > 10 µM (inactive) | > 10
CCOc1ccc(NC(=O)C/C(N)=N/O)cc1 | > 10 µM (inactive) | > 10
Cn1c(=O)c2nc(NCc3ccccc3)cnc2n(C)c1=O | > 10 µM (inactive) | > 10
O=C(N/N=C/c1ccc(OC(=O)c2ccccc2)cc1)c1ccc(CN2CCOCC2)cc1 | > 10 µM (inactive) | > 10

Compound | IC50 [1] | IC50 [2] [µM]
CN1/C(=C/C2CC(=O)NC2=O)C(C)(C)c2ccccc21 (centres undefined) | > 10 µM (inactive) | > 10
COc1ccc(/C=C2\SC(=S)N(NC(=O)c3csc4c3CCCC4)C2=O)cc1 | > 10 µM (inactive) | > 10
Clc1ccc(Cn2nnc(-c3ccc(CN4CCOCC4)cc3)n2)cc1 | 18.9 µM | > 10
Cc1nnc(-c2cccc(Br)c2)c2cn(-c3ccccc3)nc12 | > 10 µM (inactive) | > 10
CCCCS(=O)(=O)/C=C\C=C/S(=O)(=O)CCCC | 19.8 µM (inactive) | 13.9
COc1ccc(-c2cc(N)n(S(=O)(=O)c3c(F)c(F)c(F)c(F)c3F)n2)cc1OC | 9.68 µM (inactive) | 1.08
COc1ccc(C2CC(=O)C3=C(C2)NC(C)=C(C(=O)Nc2ccccc2C)C3c2coc3ccc(C)cc3c2=O)cc1OC (centres undefined) | > 10 µM (inactive) | > 10
C=C(C)C1CC=C(CN2CC(C)OC(C)C2)CC1 (centres undefined) | > 10 µM (inactive) | > 10
C=CCc1ccccc1OCC(O)CN1CCN(Cc2ccc3c(c2)OCO3)CC1 (centres undefined) | 19.6 µM | > 10
CCN(CC)C(=O)C1CCN(Cc2ccc(Br)cc2)CC1 | > 10 µM (inactive) | > 10
CCN(CC)c1ccc(CN2CC=C(c3ccc(F)cc3)CC2)cc1 | 17.3 µM | 25.8
N#CC1=C2SCC(O)(c3ccccc3)N2C(=O)CC1c1ccccc1 (centres undefined) | > 10 µM (inactive) | > 10
O=C(Nc1cccc(Cl)c1)N1CCN(C/C=C/c2ccccc2)CC1 | > 10 µM (inactive) | > 10
Cc1ccc(CN2CCN(/N=C/c3cc(Br)ccc3O)CC2)cc1 | > 10 µM (inactive) | > 10
COCCCn1c2nc3ccccc3nc2c2c(=O)n(-c3ccccc3OC)cnc21 | > 10 µM (inactive) | > 10
N=c1nc(N)nc2n1NC(c1ccc(F)cc1)=CS2 | > 10 µM (inactive) | > 10
N=c1c2c(-c3ccccc3)c(-c3ccccc3)n(Cc3ccco3)c2ncn1Cc1ccco1 | 16.7 µM | 21.5
O=C(CCl)c1ccc(Cc2ncc(C(F)(F)F)cc2Cl)s1 | > 10 µM (inactive) | 8.68
COc1ccc(NC(=S)NC(NC(=O)c2ccc(Cl)cc2Cl)C(Cl)(Cl)Cl)c([N+](=O)[O-])c1 (centres undefined) | > 10 µM (inactive) | > 10

Compound | IC50 [1] | IC50 [2] [µM]
Cc1nc(NC(=O)c2ccccc2)sc1-c1csc(NCc2ccccc2)n1 | > 10 µM (inactive) | > 10
Cc1ccc(C2(C(F)(F)F)N=C3Sc4cc(C)cc(C)c4N3C(=O)N2)cc1 (centres undefined) | 1.73 µM (inactive) | 1.08
O=C(COc1ccc(Cl)cc1Cl)NCCCN1CCOCC1 | > 10 µM (inactive) | > 10
COc1ccc(C2C3=C(CCCC3=O)Nc3nc(-c4cc(OC)c(OC)c(OC)c4)nn32)cc1OC (centres undefined) | > 10 µM (inactive) | > 10
CCOC(=O)C1=C(CSc2nc(-c3ccccc3)ccc2C#N)OC(N)=C(C#N)C1c1cccnc1 (centres undefined) | > 10 µM (inactive) | > 10
Cc1cc(O)c(/C=N/Nc2ccc(Cl)cc2)c(=O)o1 | 9.39 µM (inactive) | 4.69
CCN(CC)c1ccc(-c2nc3cnccc3n2C)cc1 | > 10 µM (inactive) | > 10
Cc1ccc2cc(CN(CCO)Cc3nnnn3Cc3ccc(F)cc3)c(=O)[nH]c2c1 | > 10 µM (inactive) | > 10
Nc1c(C(=O)OCC2CCCO2)c2nc3ccccc3nc2n1-c1ccc2c(c1)OCCO2 (centres undefined) | > 10 µM (inactive) | > 10
O=C(COc1ccc(Cl)cc1Cl)N1CCN(C/C=C/c2ccccc2)CC1 | 4.89 µM | 7.14
O=C(COc1ccc(Br)cc1F)NC1CCN(Cc2ccccc2)CC1 | > 10 µM (inactive) | > 10
CCOC(=O)c1c(CN2CCCCC2C)oc2ccc(OC)cc12 (centres undefined) | > 10 µM (inactive) | > 10
OC(COCc1ccc(Cl)cc1)CN1CC=C(c2ccccc2)CC1 (centres undefined) | 8.58 µM | 20.8
NC(=O)c1ccsc1NC(=O)c1nc(-c2ccccc2)n(-c2ccccc2)n1 | > 10 µM (inactive) | > 10
O=C1CN(C(=O)CSc2nnc(-c3ccccc3)n2Cc2ccc3c(c2)OCO3)c2ccccc2N1 | > 10 µM (inactive) | > 10
CC1CCCCN1CCNC(=O)Cn1nc(-c2ccccc2)ccc1=O (centres undefined) | > 10 µM (inactive) | > 10
CCC(C)c1ccc(OCCCCN2CCOCC2)cc1 (centres undefined) | 24 µM | > 10
N#CC1=C(N)C(C#N)(C#N)C(c2cccnc2)C2CC(c3ccccc3)CC=C12 (centres undefined) | 4.06 µM (inactive) | 2.97
O=C(Nc1nnc(-c2ccc(Cl)cc2)o1)c1ccccc1Br | > 10 µM (inactive) | 13.1
